Results as given in ChEMBL document CHEMBL4680132, “Tuning isoform selectivity and bortezomib sensitivity with a new class of alkenyl indene PDI inhibitor” (Eur J Med Chem, 2020).
Calls of active or inactive are those of the source. The rule behind the calls is not given here.

Tests used:
MM1.S [1] = assay: Inhibition of PDI in human bortezomib-resistant MM1.S cells assessed as accumulation of poly-ubiquinated protein at 0.5 uM incubated for 8 hrs by Western blot analysis
MM1.S [2] = assay: Inhibition of PDI in human bortezomib-resistant MM1.S cells assessed as induction of Nrf2 levels at 0.5 uM incubated for 8 hrs by Western blot analysis
MM1.S [3] = assay: Inhibition of PDI in human bortezomib-resistant MM1.S cells assessed as induction of ATF4 levels at 0.5 uM incubated for 8 hrs by Western blot analysis
MM1.S [4] = assay: Inhibition of PDI in human bortezomib-resistant MM1.S cells assessed as induction of CHOP levels at 0.5 uM incubated for 8 hrs by Western blot analysis
[5] = Inhibition of thioredoxin (unknown origin); design: species or system Homo sapiens
[6] = biological target: T1, Protein disulfide-isomerase A3 (Homo sapiens, UniProt P30101); assay: Inhibition of PDIA3 (unknown origin) expressed in Escherichia coli BL21 (DE3) incubated for 1 hr and measured by insulin reduction assay
T1 sequence (P30101 whole entry): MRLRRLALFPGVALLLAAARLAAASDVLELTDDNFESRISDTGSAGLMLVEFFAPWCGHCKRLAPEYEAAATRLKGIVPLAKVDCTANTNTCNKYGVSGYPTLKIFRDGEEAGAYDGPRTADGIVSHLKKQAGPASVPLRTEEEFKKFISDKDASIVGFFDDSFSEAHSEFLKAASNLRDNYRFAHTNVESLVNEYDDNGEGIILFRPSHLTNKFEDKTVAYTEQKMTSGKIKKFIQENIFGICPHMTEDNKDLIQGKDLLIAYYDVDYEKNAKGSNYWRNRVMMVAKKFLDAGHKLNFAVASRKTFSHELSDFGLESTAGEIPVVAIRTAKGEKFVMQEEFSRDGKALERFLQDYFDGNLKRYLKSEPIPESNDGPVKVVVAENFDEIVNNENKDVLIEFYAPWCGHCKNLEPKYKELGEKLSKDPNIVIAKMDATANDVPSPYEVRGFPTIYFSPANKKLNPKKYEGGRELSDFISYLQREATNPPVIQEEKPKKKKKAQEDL

Cytochrome P450 3A4 = Cytochrome P450 3A4 (Homo sapiens, UniProt P08684); assay: Inhibition of CYP3A4 in human liver microsomes using midazolam as substrate incubated for 30 mins by LC-MS/MS analysis; type: ADME; details: 0.5 h
[7] = Inhibition of PDI (unknown origin) expressed in Escherichia coli BL21 (DE3) incubated for 1 hr and measured by insulin reduction assay; design: species or system Homo sapiens
[8] = biological target: T2, Protein disulfide-isomerase A4 (Homo sapiens, UniProt P13667); assay: Inhibition of PDIA4 (unknown origin) expressed in Escherichia coli BL21 (DE3) incubated for 1 hr and measured by insulin reduction assay
T2 sequence (P13667 whole entry): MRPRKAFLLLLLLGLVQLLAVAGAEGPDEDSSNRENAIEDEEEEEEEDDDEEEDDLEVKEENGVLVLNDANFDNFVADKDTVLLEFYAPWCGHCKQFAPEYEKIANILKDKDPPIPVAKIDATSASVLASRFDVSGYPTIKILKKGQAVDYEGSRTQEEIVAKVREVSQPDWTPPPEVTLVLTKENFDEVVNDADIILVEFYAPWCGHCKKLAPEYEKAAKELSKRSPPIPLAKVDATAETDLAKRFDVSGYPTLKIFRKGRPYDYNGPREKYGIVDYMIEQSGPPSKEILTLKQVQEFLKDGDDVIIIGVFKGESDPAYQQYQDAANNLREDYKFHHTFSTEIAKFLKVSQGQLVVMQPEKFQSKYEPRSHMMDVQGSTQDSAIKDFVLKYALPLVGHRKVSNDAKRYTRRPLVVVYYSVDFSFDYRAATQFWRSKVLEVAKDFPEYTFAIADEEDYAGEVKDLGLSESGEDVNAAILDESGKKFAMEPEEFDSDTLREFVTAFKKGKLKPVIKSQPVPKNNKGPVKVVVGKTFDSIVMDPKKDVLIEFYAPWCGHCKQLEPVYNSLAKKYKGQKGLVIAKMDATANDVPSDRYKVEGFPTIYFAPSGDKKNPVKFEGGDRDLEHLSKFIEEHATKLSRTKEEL

[9] = biological target: T3, Protein disulfide-isomerase A6 (Homo sapiens, UniProt Q15084); assay: Inhibition of PDIA6 (unknown origin) expressed in Escherichia coli BL21 (DE3) incubated for 1 hr and measured by insulin reduction assay
T3 sequence (Q15084 whole entry): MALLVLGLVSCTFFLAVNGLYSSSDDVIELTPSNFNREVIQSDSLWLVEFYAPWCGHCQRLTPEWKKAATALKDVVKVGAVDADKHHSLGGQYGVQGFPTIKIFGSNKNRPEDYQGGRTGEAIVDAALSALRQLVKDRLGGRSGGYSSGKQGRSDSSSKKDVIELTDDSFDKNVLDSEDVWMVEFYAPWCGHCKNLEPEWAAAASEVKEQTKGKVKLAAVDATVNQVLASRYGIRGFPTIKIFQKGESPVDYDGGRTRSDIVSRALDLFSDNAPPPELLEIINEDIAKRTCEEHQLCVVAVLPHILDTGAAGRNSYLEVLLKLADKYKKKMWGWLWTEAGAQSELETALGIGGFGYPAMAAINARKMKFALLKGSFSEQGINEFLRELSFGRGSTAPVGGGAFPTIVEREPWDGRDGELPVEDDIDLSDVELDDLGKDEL

[10] = biological target: Thioredoxin domain-containing protein 5 (Homo sapiens, UniProt Q8NBS9); assay: Inhibition of TXNDC5 (unknown origin)
Thioredoxin domain-containing protein 5, sequence (Q8NBS9 whole entry, the tested form may be a part): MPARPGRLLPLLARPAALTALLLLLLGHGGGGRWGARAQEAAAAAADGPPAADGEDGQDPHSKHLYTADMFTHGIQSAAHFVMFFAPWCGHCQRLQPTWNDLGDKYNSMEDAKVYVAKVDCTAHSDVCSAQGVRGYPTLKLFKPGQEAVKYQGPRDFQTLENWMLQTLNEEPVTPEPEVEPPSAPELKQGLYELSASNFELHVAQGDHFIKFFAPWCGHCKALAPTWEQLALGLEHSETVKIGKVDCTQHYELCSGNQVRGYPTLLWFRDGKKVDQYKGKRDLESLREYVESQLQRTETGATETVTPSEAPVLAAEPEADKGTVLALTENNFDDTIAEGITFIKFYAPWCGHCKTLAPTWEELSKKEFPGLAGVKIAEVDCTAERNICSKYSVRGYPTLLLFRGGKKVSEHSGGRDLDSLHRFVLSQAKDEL

Cytochrome P450 3A4, sequence (P08684 whole entry): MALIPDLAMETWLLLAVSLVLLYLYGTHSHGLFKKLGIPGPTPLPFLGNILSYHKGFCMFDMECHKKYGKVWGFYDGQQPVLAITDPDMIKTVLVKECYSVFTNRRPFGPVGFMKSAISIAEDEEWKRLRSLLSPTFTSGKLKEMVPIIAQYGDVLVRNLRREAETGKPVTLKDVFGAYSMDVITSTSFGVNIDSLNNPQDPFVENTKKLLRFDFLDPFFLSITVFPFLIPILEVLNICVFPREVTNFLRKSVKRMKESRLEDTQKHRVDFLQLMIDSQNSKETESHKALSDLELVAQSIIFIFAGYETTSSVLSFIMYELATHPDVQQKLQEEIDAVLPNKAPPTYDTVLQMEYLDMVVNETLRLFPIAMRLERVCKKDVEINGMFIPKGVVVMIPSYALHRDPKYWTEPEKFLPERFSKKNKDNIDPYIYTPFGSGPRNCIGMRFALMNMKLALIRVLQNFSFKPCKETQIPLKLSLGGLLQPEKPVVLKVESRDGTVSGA

Row | IC50 [5] | IC50 [6] [µM] | inhibition (INH) (Cytochrome P450 3A4) | IC50 [7] [nM] | IC50 [8] [µM] | IC50 [9] [µM] | IC50 [10] [µM] | IC50 ([5]; read-out: IC50) [µM] | Compound | poly-ubiquitinated protein accumulation (qualitative) (MM1.S [1]) | Nrf2 induction (activity call) (MM1.S [2]) | ATF4 induction (activity call) (MM1.S [3]) | CHOP induction (activity call) (MM1.S [4])
1 |  |  |  |  |  |  |  |  | CCCCCC/C=C1\C=C(C(=O)OCC)c2cc(O)c(O)cc21 | Active | Active | Active | Active
2 |  |  |  |  |  |  |  |  | COc1cc2c(cc1OC)/C(=C\CCCCCCOCc1ccccc1)C=C2C(F)(F)F | Active | Active | Active | Active
3 |  |  |  |  |  |  |  |  | CCCCCC/C=C1\C=C(C(=O)O)c2cc(O)c(O)cc21 | Active | Active | Active | Active
4 |  |  |  |  |  |  |  |  | CCCCCC/C=C1/C=C(C(F)(F)F)c2cc(O)c(O)cc21 | Active | Active | Active | Active
5 | Not Active | 16.5 | Not Active | 790 | > 100 | 12 | > 100 |  | CCCCCC/C=C1\C=C(C(F)(F)F)c2cc3c(cc21)OCO3 | Active | Active | Active | Active
6 |  |  |  |  |  |  |  |  | CCCCCC/C=C1\C=C(C(F)(F)F)c2cc(OC)ccc21 | Active | Active | Active | Active
7 |  |  |  |  |  |  |  |  | CCCCCCCC/C=C1\C=C(C(F)(F)F)c2cc(OC)c(OC)cc21 | Active | Active | Active | Active
8 |  |  |  |  |  |  |  |  | FC(F)(F)C1=C/C(=C\CCCCCCOCc2ccccc2)c2cc3c(cc21)OCO3 | Active | Active | Active | Active
9 |  |  |  |  |  |  |  |  | CCCCCC/C=C1\C=C(C(=O)NC)c2cc(O)c(O)cc21 | Active | Active | Active | Active
10 |  |  |  |  |  |  |  |  | CCCCCC/C=C1\C=C(C(F)(F)F)c2cc3c(cc21)OCCO3 | Active | Active | Active | Active
11 |  |  |  |  |  |  |  |  | COc1cc2c(cc1OC)/C(=C/CCCCCCOCc1ccccc1)C=C2C(F)(F)F | Active | Active | Active | Active
12 |  |  |  |  |  |  |  |  | CCCCCCCC/C=C1/C=C(C(F)(F)F)c2cc(O)c(O)cc21 | Active | Active | Active | Active
13 |  |  |  |  |  |  |  |  | FC(F)(F)C1=C/C(=C/CCCCCCOCc2ccccc2)c2cc3c(cc21)OCO3 | Active | Active | Active | Active
14 |  | 4.8 | Not Active | 600 | 33.1 | 5.7 | 12.1 | 30.3 | CCCCCCCC/C=C1\C=C(C(F)(F)F)c2cc(O)c(O)cc21 | Active | Active | Active | Active
15 |  |  |  |  |  |  |  |  | CCCCCC/C=C1\C=C(C(F)(F)F)c2cc(O)c(O)cc21 | Active | Active | Active | Active
16 |  |  |  |  |  |  |  |  | FC(F)(F)C1=C/C(=C\CC2CCCC2)c2cc3c(cc21)OCO3 | Active | Active | Active | Active
17 |  |  |  |  |  |  |  |  | FC(F)(F)C1=C/C(=C\CC2CCCCC2)c2cc3c(cc21)OCO3 | Active | Active | Active | Active
18 | Not Active | 20.8 |  | 1120 | 61.6 | 16.3 | > 100 |  | CCCCCCCC/C=C1/C=C(C(F)(F)F)c2cc(OC)c(OC)cc21 | Active | Active | Active | Active
